# Experiments:
# [1] = biological target: T1, Muscarinic acetylcholine receptor M2 (Homo sapiens, UniProt P08172)
# T1 sequence (P08172 whole entry): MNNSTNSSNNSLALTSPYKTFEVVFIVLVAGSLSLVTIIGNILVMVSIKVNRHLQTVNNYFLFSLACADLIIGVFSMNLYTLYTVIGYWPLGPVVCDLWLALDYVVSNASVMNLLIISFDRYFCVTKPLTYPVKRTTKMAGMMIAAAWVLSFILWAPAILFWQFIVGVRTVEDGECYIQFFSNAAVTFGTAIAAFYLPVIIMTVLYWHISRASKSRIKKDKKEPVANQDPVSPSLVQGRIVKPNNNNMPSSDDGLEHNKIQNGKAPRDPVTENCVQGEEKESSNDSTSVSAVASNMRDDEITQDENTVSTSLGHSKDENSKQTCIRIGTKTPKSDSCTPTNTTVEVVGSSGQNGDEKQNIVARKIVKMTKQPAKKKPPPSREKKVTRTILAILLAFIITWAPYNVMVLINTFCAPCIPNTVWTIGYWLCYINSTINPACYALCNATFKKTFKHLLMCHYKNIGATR
# Prothrombin = Prothrombin (Homo sapiens, UniProt P00734); format: functional
# Histamine H3 receptor = Histamine H3 receptor (Homo sapiens, UniProt Q9Y5N1)
# Sequence of Histamine H3 receptor (Q9Y5N1 whole entry): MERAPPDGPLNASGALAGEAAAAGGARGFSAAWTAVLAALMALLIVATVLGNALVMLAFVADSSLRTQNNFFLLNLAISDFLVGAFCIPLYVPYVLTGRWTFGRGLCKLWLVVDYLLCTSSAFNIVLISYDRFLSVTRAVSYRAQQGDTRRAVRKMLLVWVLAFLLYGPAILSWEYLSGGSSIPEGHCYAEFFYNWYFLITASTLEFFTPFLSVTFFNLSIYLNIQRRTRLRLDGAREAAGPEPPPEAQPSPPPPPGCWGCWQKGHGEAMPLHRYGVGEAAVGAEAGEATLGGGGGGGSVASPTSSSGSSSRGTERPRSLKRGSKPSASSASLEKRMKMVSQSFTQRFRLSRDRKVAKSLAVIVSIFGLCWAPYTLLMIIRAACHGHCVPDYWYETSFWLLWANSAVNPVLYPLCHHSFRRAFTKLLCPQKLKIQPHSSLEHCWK
# [2] = biological target: cGMP-inhibited 3',5'-cyclic phosphodiesterase 3A (Homo sapiens, UniProt Q14432); format: functional
# Sequence of cGMP-inhibited 3',5'-cyclic phosphodiesterase 3A (Q14432 whole entry): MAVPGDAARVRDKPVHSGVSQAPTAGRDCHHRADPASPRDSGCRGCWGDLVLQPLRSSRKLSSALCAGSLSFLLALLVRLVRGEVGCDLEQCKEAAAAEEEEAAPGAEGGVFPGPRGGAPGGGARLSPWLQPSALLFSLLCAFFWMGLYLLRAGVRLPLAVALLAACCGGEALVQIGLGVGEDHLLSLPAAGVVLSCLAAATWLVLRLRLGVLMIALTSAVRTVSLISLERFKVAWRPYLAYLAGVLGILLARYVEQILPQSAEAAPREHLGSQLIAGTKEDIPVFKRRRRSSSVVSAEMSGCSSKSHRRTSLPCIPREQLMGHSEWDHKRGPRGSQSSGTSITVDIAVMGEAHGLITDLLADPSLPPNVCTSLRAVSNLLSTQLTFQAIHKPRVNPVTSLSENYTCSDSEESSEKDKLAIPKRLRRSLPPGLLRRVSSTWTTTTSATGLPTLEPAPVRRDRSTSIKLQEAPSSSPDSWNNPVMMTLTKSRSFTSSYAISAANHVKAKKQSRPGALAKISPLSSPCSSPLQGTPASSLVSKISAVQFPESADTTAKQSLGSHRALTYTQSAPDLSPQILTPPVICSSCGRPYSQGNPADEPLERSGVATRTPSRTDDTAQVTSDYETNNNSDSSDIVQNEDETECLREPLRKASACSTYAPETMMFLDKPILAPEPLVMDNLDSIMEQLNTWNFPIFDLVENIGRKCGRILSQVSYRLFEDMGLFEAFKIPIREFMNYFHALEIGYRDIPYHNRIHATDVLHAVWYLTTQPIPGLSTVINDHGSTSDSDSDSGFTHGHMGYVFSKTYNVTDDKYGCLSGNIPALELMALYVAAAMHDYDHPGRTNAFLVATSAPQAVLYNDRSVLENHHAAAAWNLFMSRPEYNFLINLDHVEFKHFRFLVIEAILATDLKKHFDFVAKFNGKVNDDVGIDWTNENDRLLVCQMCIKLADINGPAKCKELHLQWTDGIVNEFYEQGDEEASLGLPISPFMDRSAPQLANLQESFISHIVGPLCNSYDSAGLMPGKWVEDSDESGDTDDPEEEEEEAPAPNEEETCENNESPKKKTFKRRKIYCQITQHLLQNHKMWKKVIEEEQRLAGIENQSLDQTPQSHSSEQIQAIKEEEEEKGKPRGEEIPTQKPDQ
# Progesterone receptor = biological target: T2, Progesterone receptor (Homo sapiens, UniProt P06401)
# T2 sequence (P06401 whole entry): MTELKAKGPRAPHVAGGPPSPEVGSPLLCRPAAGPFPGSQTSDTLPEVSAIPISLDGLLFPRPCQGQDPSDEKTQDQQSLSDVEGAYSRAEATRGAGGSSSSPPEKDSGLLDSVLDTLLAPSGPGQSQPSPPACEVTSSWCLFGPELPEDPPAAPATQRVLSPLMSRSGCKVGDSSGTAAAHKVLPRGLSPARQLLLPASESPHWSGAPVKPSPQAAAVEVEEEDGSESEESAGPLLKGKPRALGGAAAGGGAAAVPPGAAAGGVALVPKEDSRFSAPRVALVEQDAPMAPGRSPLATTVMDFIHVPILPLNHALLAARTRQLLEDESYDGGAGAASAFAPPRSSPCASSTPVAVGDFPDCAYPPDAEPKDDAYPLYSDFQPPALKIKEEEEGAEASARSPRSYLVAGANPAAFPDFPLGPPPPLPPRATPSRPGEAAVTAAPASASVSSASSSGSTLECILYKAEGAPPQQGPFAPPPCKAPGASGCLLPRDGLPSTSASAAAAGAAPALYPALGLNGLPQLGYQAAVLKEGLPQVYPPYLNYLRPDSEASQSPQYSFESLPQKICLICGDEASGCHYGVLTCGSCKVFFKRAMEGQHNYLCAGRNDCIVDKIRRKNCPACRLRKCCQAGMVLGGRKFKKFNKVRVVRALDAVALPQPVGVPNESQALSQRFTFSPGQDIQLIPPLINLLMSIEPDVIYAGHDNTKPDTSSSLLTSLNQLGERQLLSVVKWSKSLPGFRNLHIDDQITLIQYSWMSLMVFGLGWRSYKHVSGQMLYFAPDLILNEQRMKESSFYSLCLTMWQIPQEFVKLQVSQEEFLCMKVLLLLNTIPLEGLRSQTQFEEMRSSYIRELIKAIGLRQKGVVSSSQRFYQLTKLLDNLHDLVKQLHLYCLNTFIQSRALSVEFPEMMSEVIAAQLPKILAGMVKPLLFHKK
# [3] = biological target: Sodium channel protein type 5 subunit alpha (Homo sapiens, UniProt Q14524); format: functional, cell-based
# Sequence of Sodium channel protein type 5 subunit alpha (Q14524 whole entry): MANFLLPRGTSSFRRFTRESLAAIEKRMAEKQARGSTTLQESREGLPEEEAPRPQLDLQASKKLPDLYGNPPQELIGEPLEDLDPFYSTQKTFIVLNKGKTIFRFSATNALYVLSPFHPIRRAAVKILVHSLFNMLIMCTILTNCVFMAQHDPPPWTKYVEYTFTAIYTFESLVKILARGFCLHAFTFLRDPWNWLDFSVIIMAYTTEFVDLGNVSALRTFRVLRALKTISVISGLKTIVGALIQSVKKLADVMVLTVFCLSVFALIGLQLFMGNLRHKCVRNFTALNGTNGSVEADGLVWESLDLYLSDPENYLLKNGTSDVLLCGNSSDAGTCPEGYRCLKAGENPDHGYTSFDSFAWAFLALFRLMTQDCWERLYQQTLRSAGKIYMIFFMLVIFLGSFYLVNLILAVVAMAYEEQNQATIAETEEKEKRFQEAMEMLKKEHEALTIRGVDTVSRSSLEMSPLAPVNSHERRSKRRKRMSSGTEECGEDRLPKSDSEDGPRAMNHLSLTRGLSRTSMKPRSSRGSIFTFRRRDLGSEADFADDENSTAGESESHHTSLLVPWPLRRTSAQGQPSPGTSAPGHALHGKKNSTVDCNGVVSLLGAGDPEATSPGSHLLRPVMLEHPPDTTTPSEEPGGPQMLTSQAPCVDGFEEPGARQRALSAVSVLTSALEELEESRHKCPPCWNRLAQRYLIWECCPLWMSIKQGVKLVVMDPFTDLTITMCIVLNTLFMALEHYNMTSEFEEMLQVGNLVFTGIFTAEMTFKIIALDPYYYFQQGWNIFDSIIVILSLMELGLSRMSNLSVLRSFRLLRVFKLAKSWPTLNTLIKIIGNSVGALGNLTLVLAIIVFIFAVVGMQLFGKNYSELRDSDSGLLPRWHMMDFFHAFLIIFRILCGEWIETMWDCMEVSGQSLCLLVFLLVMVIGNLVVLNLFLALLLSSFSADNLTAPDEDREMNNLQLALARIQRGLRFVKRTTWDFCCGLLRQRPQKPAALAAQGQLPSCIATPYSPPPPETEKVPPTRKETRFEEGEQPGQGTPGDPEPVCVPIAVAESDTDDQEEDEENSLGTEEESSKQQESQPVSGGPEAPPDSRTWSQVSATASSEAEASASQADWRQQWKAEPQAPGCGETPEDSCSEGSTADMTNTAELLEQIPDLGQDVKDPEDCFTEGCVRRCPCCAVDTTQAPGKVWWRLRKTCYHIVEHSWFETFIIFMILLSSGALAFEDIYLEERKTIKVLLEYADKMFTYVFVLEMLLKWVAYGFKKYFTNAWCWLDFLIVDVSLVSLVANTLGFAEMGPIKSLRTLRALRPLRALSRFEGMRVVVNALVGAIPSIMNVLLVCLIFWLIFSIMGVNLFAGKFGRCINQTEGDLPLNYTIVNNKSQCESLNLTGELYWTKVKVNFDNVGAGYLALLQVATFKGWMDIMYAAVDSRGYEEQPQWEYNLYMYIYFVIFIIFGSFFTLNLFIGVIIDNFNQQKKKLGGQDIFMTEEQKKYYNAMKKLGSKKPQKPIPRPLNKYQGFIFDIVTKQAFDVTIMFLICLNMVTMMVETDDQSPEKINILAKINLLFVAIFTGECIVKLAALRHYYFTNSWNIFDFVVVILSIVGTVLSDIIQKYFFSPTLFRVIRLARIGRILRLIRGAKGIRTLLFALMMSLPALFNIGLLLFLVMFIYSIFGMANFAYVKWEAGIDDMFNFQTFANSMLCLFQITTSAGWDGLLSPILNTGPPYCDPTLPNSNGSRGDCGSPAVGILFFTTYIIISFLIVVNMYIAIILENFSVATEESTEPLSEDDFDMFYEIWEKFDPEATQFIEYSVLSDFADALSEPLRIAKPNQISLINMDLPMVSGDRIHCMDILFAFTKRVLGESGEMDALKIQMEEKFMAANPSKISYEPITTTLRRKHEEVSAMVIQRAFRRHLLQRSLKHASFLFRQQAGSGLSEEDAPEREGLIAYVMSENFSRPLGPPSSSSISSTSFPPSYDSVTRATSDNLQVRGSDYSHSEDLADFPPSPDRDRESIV
# [4] = biological target: Sodium-dependent noradrenaline transporter (Homo sapiens, UniProt P23975)
# Sequence of Sodium-dependent noradrenaline transporter (P23975 whole entry): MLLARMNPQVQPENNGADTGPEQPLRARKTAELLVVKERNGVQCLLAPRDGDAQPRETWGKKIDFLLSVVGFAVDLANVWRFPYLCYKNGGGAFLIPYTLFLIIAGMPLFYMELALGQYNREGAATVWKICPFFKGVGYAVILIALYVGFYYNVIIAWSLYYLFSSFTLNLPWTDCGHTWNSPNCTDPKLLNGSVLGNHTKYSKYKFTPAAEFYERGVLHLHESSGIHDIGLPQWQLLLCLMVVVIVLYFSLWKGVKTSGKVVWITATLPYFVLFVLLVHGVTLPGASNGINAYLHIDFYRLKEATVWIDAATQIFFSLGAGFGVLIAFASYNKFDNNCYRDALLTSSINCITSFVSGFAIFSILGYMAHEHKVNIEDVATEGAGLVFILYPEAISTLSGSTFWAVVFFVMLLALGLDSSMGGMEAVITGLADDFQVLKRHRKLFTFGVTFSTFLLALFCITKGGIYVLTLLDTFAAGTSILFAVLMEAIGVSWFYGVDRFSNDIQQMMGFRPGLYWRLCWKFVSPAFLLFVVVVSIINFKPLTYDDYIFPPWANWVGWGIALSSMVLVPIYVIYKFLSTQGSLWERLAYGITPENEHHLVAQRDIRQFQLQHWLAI
# [5] = biological target: Epidermal growth factor receptor (Homo sapiens, UniProt P00533); format: functional
# [6] = biological target: Receptor tyrosine-protein kinase erbB-2 (Homo sapiens, UniProt P04626); format: functional
# [7] = biological target: Vascular endothelial growth factor receptor 2 (Homo sapiens, UniProt P35968); format: functional
# D(3) dopamine receptor = D(3) dopamine receptor (Homo sapiens, UniProt P35462)
# Sequence of D(3) dopamine receptor (P35462 whole entry): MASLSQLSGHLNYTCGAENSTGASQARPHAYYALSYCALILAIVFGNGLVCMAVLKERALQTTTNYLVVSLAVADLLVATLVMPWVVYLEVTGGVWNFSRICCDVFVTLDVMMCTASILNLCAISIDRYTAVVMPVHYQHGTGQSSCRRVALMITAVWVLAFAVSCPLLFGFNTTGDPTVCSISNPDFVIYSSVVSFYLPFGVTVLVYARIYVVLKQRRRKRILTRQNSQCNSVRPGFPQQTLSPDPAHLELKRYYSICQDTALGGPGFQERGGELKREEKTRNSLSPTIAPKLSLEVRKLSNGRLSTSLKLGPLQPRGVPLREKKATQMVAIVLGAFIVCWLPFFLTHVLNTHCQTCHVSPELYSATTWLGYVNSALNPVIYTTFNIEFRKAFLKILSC
# [8] = biological target: 5-hydroxytryptamine receptor 2B (Homo sapiens, UniProt P41595); format: functional, cell-based
# Sequence of 5-hydroxytryptamine receptor 2B (P41595 whole entry): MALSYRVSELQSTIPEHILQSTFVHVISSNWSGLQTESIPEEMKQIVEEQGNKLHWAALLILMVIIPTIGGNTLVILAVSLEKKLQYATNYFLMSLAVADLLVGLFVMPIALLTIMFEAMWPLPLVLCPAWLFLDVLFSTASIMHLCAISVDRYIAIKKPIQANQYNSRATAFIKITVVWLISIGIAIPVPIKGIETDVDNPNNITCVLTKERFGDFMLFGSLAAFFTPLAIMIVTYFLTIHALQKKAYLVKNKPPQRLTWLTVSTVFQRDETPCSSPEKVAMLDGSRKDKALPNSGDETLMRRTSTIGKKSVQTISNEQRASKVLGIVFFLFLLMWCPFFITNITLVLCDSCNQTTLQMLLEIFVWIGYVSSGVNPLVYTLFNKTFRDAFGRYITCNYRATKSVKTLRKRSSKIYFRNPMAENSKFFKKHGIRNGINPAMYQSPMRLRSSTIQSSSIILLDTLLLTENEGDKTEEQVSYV
# [9] = biological target: Prostaglandin G/H synthase 1 (Homo sapiens, UniProt P23219); format: functional
# [10] = biological target: T3, Corticotropin-releasing factor receptor 2 (Homo sapiens, UniProt Q13324)
# T3 sequence (Q13324 whole entry): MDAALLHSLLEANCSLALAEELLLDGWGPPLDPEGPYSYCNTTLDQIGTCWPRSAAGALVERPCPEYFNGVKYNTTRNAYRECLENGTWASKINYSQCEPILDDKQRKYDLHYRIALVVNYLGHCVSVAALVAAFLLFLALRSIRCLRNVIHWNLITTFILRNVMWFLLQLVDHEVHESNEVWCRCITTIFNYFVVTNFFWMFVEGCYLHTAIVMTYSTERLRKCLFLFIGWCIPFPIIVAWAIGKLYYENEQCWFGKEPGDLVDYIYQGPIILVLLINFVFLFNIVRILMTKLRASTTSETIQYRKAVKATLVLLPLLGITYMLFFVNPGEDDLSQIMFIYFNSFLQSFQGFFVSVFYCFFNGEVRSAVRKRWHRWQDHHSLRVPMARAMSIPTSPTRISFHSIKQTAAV
# [11] = biological target: T4, Gastric inhibitory polypeptide receptor (Homo sapiens, UniProt P48546)
# T4 sequence (P48546 whole entry): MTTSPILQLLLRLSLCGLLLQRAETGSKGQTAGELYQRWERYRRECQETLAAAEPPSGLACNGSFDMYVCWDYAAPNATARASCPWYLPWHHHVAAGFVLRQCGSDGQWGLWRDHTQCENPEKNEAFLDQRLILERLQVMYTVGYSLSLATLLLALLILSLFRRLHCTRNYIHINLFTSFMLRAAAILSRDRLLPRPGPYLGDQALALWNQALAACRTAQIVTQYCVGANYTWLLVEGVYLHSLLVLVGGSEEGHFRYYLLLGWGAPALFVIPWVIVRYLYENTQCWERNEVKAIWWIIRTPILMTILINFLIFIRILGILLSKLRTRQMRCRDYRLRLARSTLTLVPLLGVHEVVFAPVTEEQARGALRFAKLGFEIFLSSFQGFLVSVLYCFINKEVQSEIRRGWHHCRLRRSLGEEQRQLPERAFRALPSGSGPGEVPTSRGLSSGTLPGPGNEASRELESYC
# Note: assay procedure not described here.
Compound,AC50 [1] [µM],AC50 (Prothrombin) [µM],AC50 (Histamine H3 receptor) [µM],AC50 [2] [µM],AC50 (Progesterone receptor) [µM],AC50 [3] [µM],AC50 [4] [µM],AC50 [10] [µM],AC50 [11] [µM],also measured
THIMEROSAL,> 30,> 30,> 30,> 30,> 30,> 50,> 30,,,
CC(CC1c2ccccc2CCc2ccccc21)CN(C)C (centres undefined) [BUTRIPTYLINE],,,,,,,,,,AC50 [5]: > 30 µM; AC50 [6]: > 30 µM; AC50 [7]: > 30 µM
CO[C@]12C[C@@H](COC(=O)c3cncc(Br)c3)CN(C)[C@@H]1Cc1cn(C)c3cccc2c13 [NICERGOLINE],7.93,> 30,7.91,> 30,> 30,,11.1,,,AC50 (D(3) dopamine receptor): 0.641 µM; AC50 [8]: > 30 µM; AC50 [9]: > 30 µM
COc1cccc(C2(O)CCCCC2CN(C)C)c1 (centres undefined) [TRAMADOL],,,,,,,,> 30,> 30,
Cc1c(OCC(F)(F)F)ccnc1C[S+]([O-])c1nc2ccccc2[nH]1 (centres undefined) [LANSOPRAZOLE],,,,,,> 30,,> 30,> 30,

# Source: ChEMBL document CHEMBL5291721, “A preclinical secondary pharmacology resource illuminates target-adverse drug reaction associations of marketed drugs” (Nat Commun, 2023)
